The test system of series [1] is induced supraventricular tachycardia. The experiment in a line: Supraventricular tachycardia (SVT) model in anesthetized dogs, IT vs IV. It is filed as in vivo. The settings on record: for cardiovascular effect when given by intratracheal instillation (summary): dog, in vivo. As for the experimental part: Supraventricular Tachycardia Model:
Anesthesia/Surgical Preparation:
A venous catheter was placed in a peripheral vessel (i.e., cephalic) for administration of anesthetic(s). For anesthesia induction, all animals were given a combination of diazepam (˜0.5 mg/kg) and ketamine (˜10 mg/kg) intravenously through this venous catheter. Anesthesia was sustained until completion of the study with an intravenous infusion of pentobarbital (5-15 mg/kg/hr). Following induction, animals were endotracheally intubated and mechanically ventilated (˜12 breaths/min with a tidal volume of 200-300 mL).
Subsequently, a cut-down on a jugular vein permitted the introduction of a pacing lead into the right atrium. Similarly, for arterial pressure monitoring, a solid-state micromanometer catheter (Millar Instruments) was advanced into the aortic root via a cut-down over an artery (e.g., femoral, carotid). Transthoracic electrodes forming ECG lead II was placed. For vehicle/test article delivery, a 4F catheter was introduced through the trachea and wedged into a small airway, and a venous catheter was placed in a peripheral vessel (i.e., cephalic).
Following instrumentation/hemodynamic stabilization (for at least 15 minutes), right atrial pacing (5-10 V, 40 Hz, 2 ms pulses) was established in order to induce supraventricular tachycardia (SVT); pacing and SVT was sustained throughout the duration of the experiments. Approximately 5 minutes after onset of SVT and while monitoring ECG/arterial pressure continuously, the animals were administered three escalating doses (one at a time) of a test article; each dose was delivered as a bolus (˜3 mL) directly into a small airway through the intratracheal catheter (IT). Following dosing, the heart-rate (HR) and arterial pressure response were monitored for 15 minutes.
Subsequently (once the response to three IT doses had been recorded), hemodynamic recovery was allowed for approximately 30 minutes, and the electrocardiographic/hemodynamic response to the highest test-article dose was re-evaluated; however, for comparison purposes, this dose was delivered intravenously (IV).
Overall, two groups/test-articles were studied, and up to two animals were assigned to each group (n=2/group): one group received esmolol HCL (0.5-1.0 mg/kg, ESM), while the other received adenosine (0.25-1.0 mg/kg, ADN); only one test article was administered to per animal.

Series [2] relates to induced atrial fibrillation. As to the kind of experiment: Induced atrial fibrillation model in anesthetized dogs, intratracheal (IT) administration. It counts as in vivo. The settings on record: for conversion of induced atrial fibrillation to normal sinus rhythm: pulmonary dose 0.25 mg/kg body weight (FIG. 13), hydrochloride. How it is done: Atrial Fibrillation Model: Anesthesia/Surgical Preparation: A venous catheter was placed in a peripheral vessel (i.e., cephalic) for administration of anesthetic. […] Following induction, animals were endotracheally intubated and mechanically ventilated (˜12 breaths/minute with a tidal volume of 200-300 mL). Subsequently, a cut-down on a jugular vein permitted introduction of a pacing lead into the right atrium. Transthoracic electrodes forming ECG lead II were placed. For test/vehicle article delivery, a 4F catheter was introduced through the trachea and wedged into a small airway, and a venous catheter was placed in a peripheral vessel (i.e., cephalic). […] Approximately 5 min after administration of this parasympathomimetic was started; the following experiments were performed: […] Observations were made for up to 10 minutes. […] Vehicle was only water.

Counter-ions that a name gives are not always drawn.

For the molecule `Nc1ncnc2c1ncn2[C@@H]1O[C@H](CO)[C@@H](O)[C@H]1O` [adenosine], the “cardiovascular effect when given by intratracheal instillation (summary)” value (from here on “cardiovascular effect when given”) in series [1] is listed as “a clear response was not observed”. The “effect on the heart” value in series [1] (via the lung) is “did not have any effect on the heart”.
Consider `COc1ccc([C@@H]2Sc3ccccc3N(CCN(C)C)C(=O)[C@@H]2OC(C)=O)cc1` [diltiazem, diltiazem hydrochloride], for which the “conversion of Atrial Fibrillation to normal sinus rhythm” value in series [2] (IT bolus) was “rapidly converted the Atrial Fibrillation to normal sinus rhythm”. For the same molecule, the “cardiovascular effect when given” value in series [2] (dog, in vivo) is “clear cardiovascular effect”. Further, the “mean arterial blood pressure (MAP)” value in series [2] (dog, in vivo, 0.25 mg/kg) is on record as “notable drop in mean arterial blood pressure”. For the same molecule, in series [2] (pulmonary dose 0.25 mg/kg), the PQ interval entry was “prolonged the PQ interval” and the heart rate entry was “slowed down but marginally”. The “conversion of induced atrial fibrillation to normal sinus rhythm” value in series [2] (0.25 mg/kg) is recorded as “converted the induced atrial fibrillation to normal sinus rhythm”. Also, in series [2] (listed as diltiazem HCl, 0.25 mg/kg), the “conversion of induced atrial fibrillation to normal sinus rhythm” value is listed as “Afib converting after administration”. Moreover, the “pH of solution in water” value (3.5 mg/mL) was found to be 6.7. Moreover, the appearance of solution result (distilled water, diltiazem hydrochloride 50 mg/ml, flecainide acetate 30 mg/ml) was “clear with no visible particulate matter”. Also, the “pulmonary vs IV route” value in series [1] (0.25 mg/kg) was “comparable in all aspects”. Further, the PR interval entry in series [1] (IV or pulmonary route) is given as “prolonged the PR interval”.
On to `CN(CCOc1ccc(NS(C)(=O)=O)cc1)CCc1ccc(NS(C)(=O)=O)cc1` [dofetilide], for which the “effect on ventricular rate” value in series [2] (IT bolus) was “marginally slowed the ventricular rate”. Also, in series [2] (dog, in vivo), the “cardiovascular effect when given” value was “probable effect”. The heart rate result in series [2] (escalating pulmonary doses of 10-40 mcg/kg body weight) is “minor reduction in heart rate”.
Consider `COC(=O)CCc1ccc(OCC(O)CNC(C)C)cc1` (stereo not shown) [esmolol, esmolol HCl], for which the “period of AV block” value in series [1] (0.5 mg/kg via the lung (FIG. 17, 18)) is recorded as “AV block induced”. In addition, in series [1] (0.75 mg/kg via the lung (FIG. 20)), the “period of AV block” value is “AV block induced”. Also, the “cardiovascular effect when given” value in series [1] is “probable effect”. Besides, in series [1] (elevating IT doses), the AV block is on record as 2nd degree AV block at lower doses and the “PR intervals in the ECG traces” value is given as “prolonging the PR intervals”. In addition, in series [1] (higher dose 1.0 mg/kg), the electrophysiological effects entry is “did not produce the same electrophysiological effects”.

Values taken from patent publication US10441537B2, “Unit doses, aerosols, kits, and methods for treating heart conditions by pulmonary administration” (InCarda Therapeutics, Inc., priority 2017, dated 2019).
